≈ marks a conversion by molar mass, not a printed value.
Tests used:
Staphylococcus aureus [1] = assay: Antibacterial activity against wild type Staphylococcus aureus 4717/B assessed as reduction in microbial growth incubated for 24 hrs by microdilution assay; type: functional
Staphylococcus aureus [2] = assay: Antibacterial activity against wild type Staphylococcus aureus 4740/B assessed as reduction in microbial growth incubated for 24 hrs by microdilution assay; type: functional
Staphylococcus aureus [3] = assay: Antibacterial activity against […] Staphylococcus aureus 4460/A assessed as reduction in microbial growth incubated for 24 hrs by microdilution assay; type: functional
Staphylococcus aureus [4] = assay: Antibacterial activity against antibiotic resistant Staphylococcus aureus 4502/A assessed as reduction in microbial growth incubated for 24 hrs by microdilution assay; type: functional
Staphylococcus aureus [5] = assay: Antibacterial activity against wild type Staphylococcus aureus 4883/C assessed as reduction in microbial growth incubated for 24 hrs by microdilution assay; type: functional
Staphylococcus aureus [6] = assay: Antibacterial activity against wild type Staphylococcus aureus 4968/C assessed as reduction in microbial growth incubated for 24 hrs by microdilution assay; type: functional
Staphylococcus aureus [7] = assay: Antibacterial activity against wild type Staphylococcus aureus 78/CF assessed as reduction in microbial growth incubated for 24 hrs by microdilution assay; type: functional
Staphylococcus aureus [8] = assay: Antibacterial activity against antibiotic resistant Staphylococcus aureus 77/CF assessed as reduction in microbial growth incubated for 24 hrs by microdilution assay; type: functional
Staphylococcus aureus [9] = assay: Antibacterial activity against wild type Staphylococcus aureus 4557/A assessed as reduction in microbial growth incubated for 24 hrs by microdilution assay; type: functional
Staphylococcus aureus [10] = assay: Antibacterial activity against wild type Staphylococcus aureus 5079/C assessed as reduction in microbial growth incubated for 24 hrs by microdilution assay; type: functional
Staphylococcus aureus [11] = assay: Antibacterial activity against wild type Staphylococcus aureus 4788/B assessed as reduction in microbial growth incubated for 24 hrs by microdilution assay; type: functional
Staphylococcus aureus [12] = assay: Antibacterial activity against wild type Staphylococcus aureus 4515/A assessed as reduction in microbial growth incubated for 24 hrs by microdilution assay; type: functional
Staphylococcus aureus [13] = assay: Antibacterial activity against wild type Staphylococcus aureus 4738/B assessed as reduction in microbial growth incubated for 24 hrs by microdilution assay; type: functional
Staphylococcus aureus [14] = assay: Antibacterial activity against antibiotic resistant Staphylococcus aureus 4504/A assessed as reduction in microbial growth incubated for 24 hrs by microdilution assay; type: functional
Staphylococcus aureus [15] = assay: Antibacterial activity against wild type Staphylococcus aureus 4566/A assessed as reduction in microbial growth incubated for 24 hrs by microdilution assay; type: functional
Staphylococcus aureus [16] = assay: Antibacterial activity against wild type Staphylococcus aureus 4904/C assessed as reduction in microbial growth incubated for 24 hrs by microdilution assay; type: functional
Staphylococcus aureus [17] = assay: Antibacterial activity against […] Staphylococcus aureus 4461/A assessed as reduction in microbial growth incubated for 24 hrs by microdilution assay; type: functional
Staphylococcus aureus [18] = assay: Antibacterial activity against antibiotic resistant Staphylococcus aureus 4679/B assessed as reduction in microbial growth incubated for 24 hrs by microdilution assay; type: functional
Staphylococcus aureus [19] = assay: Antibacterial activity against wild type Staphylococcus aureus 4482/A assessed as reduction in microbial growth incubated for 24 hrs by microdilution assay; type: functional
Staphylococcus aureus [20] = assay: Antibacterial activity against wild type Staphylococcus aureus 4561/A assessed as reduction in microbial growth incubated for 24 hrs by microdilution assay; type: functional
Staphylococcus aureus [21] = assay: Antibacterial activity against […] Staphylococcus aureus 4463/A assessed as reduction in microbial growth incubated for 24 hrs by microdilution assay; type: functional
Staphylococcus aureus [22] = assay: Antibacterial activity against wild type Staphylococcus aureus 77/CF assessed as reduction in microbial growth incubated for 24 hrs by microdilution assay; type: functional
Staphylococcus aureus [23] = assay: microbe, parasite or virus in culture; conditions: 5017/C, 24 h
Description: Antibacterial activity against wild type Staphylococcus aureus 5017/C assessed as reduction in microbial growth incubated for 24 hrs by microdilution assay

Staphylococcus aureus [24] = assay: microbe, parasite or virus in culture; conditions: 4880/C, 24 h
Description: Antibacterial activity against wild type Staphylococcus aureus 4880/C assessed as reduction in microbial growth incubated for 24 hrs by microdilution assay

Staphylococcus aureus [25] = assay: Antibacterial activity against wild type Staphylococcus aureus 4679/B assessed as reduction in microbial growth incubated for 24 hrs by microdilution assay; type: functional
Staphylococcus aureus [26] = assay: microbe, parasite or virus in culture; conditions: 4862/C, 24 h
Description: Antibacterial activity against wild type Staphylococcus aureus 4862/C assessed as reduction in microbial growth incubated for 24 hrs by microdilution assay

Staphylococcus aureus [27] = assay: Antibacterial activity against wild type Staphylococcus aureus 4504/A assessed as reduction in microbial growth incubated for 24 hrs by microdilution assay; type: functional
Staphylococcus aureus [28] = assay: Antibacterial activity against wild type Staphylococcus aureus 4502/A assessed as reduction in microbial growth incubated for 24 hrs by microdilution assay; type: functional
Staphylococcus aureus [29] = assay: Antibacterial activity against wild type methicillin resistant Staphylococcus aureus 5017/C assessed as reduction in microbial growth incubated for 24 hrs by microdilution assay; type: functional
Staphylococcus aureus [30] = assay: Antibacterial activity against wild type methicillin resistant Staphylococcus aureus 4561/A assessed as reduction in microbial growth incubated for 24 hrs by microdilution assay; type: functional
Staphylococcus aureus [31] = assay: Antibacterial activity against wild type methicillin resistant Staphylococcus aureus 4968/C assessed as reduction in microbial growth incubated for 24 hrs by microdilution assay; type: functional
Pseudomonas aeruginosa [32] = assay: Antibacterial activity against Pseudomonas aeruginosa ATCC 27853 = CCM 3955 assessed as inhibition of bacterial growth incubated for 24 hrs by microdilution assay; type: functional
[33] = Gradient chromatographic hydrophobicity index of the compound at pH 3.7 by HPLC analysis; type: ADME
Staphylococcus aureus [34] = assay: Antibacterial activity against Staphylococcus aureus ATCC 29213 = CCM 4223 assessed as inhibition of bacterial growth incubated for 24 hrs in presence of BSA by microdilution assay; type: functional
[35] = test system: Staphylococcus epidermidis; assay: Antibacterial activity against Staphylococcus epidermidis CCM 7221 assessed as inhibition of bacterial growth incubated for 24 hrs by microdilution assay; type: functional
Pseudomonas aeruginosa [36] = assay: Antibacterial activity against multidrug-resistant Pseudomonas aeruginosa assessed as reduction in microbial growth incubated for 24 hrs by microdilution assay; type: functional
Staphylococcus aureus [37] = assay: Antibacterial activity against Staphylococcus aureus ATCC 29213 = CCM 4223 assessed as inhibition of bacterial growth incubated for 24 hrs by microdilution assay; type: functional
Escherichia coli [38] = assay: Antibacterial activity against multidrug-resistant Escherichia coli CE5556 expressing CTX-M-15 assessed as reduction in microbial growth incubated for 24 hrs by microdilution assay; type: functional
Enterococcus faecium = assay: Antibacterial activity against vancomycin resistant Enterococcus faecium 419/ANA assessed as reduction in microbial growth incubated for 24 hrs by microdilution assay; type: functional
Escherichia coli [39] = assay: Antibacterial activity against Escherichia coli ATCC 25922 = CCM 3954 assessed as inhibition of bacterial growth incubated for 24 hrs by microdilution assay; type: functional
Enterococcus faecalis = assay: Antibacterial activity against Enterococcus faecalis ATCC 29212 = CCM 4224 assessed as inhibition of bacterial growth incubated for 24 hrs by microdilution assay; type: functional
Staphylococcus aureus [40] = assay: Antibacterial activity against methicillin resistant Staphylococcus aureus 4591/A assessed as reduction in microbial growth incubated for 24 hrs by microdilution assay; type: functional
[41] = Hemolytic activity in human RBC assessed as haemoglobin release measured after 3 hr; type: toxicity, cell-based, Erythrocyte; conditions: red blood cells (erythrocytes)
Escherichia coli [42] = assay: Antibacterial activity against Escherichia coli ATCC 25922 = CCM 3954 assessed as inhibition of bacterial growth incubated for 24 hrs in presence of BSA by microdilution assay; type: functional

Molecule | MIC (Staphylococcus aureus [1]) | MIC (Staphylococcus aureus [2]) | MIC (Staphylococcus aureus [3]) | MIC (Staphylococcus aureus [5]) | MIC (Staphylococcus aureus [7]) | MIC (Staphylococcus aureus [9]) | MIC (Staphylococcus aureus [10]) | MIC (Staphylococcus aureus [11]) | MIC (Staphylococcus aureus [12]) | MIC (Staphylococcus aureus [13]) | MIC (Staphylococcus aureus [15]) | MIC (Staphylococcus aureus [16]) | MIC (Staphylococcus aureus [17]) | MIC (Staphylococcus aureus [19]) | MIC (Staphylococcus aureus [21]) | MIC (Staphylococcus aureus [24]) | MIC (Staphylococcus aureus [25]) | MIC (Staphylococcus aureus [26]) | MIC (Staphylococcus aureus [27]) | MIC (Staphylococcus aureus [28]) | also measured
GENTAMICIN | 0.25 µg/mL | 0.25 µg/mL | 0.25 µg/mL | 0.25 µg/mL | 1 µg/mL | 1 µg/mL | 0.25 µg/mL | 0.25 µg/mL | 0.25 µg/mL | 0.25 µg/mL | 0.25 µg/mL | 0.25 µg/mL | 0.25 µg/mL | 0.25 µg/mL | 0.25 µg/mL |  |  |  |  |  | MIC (Staphylococcus aureus [4]): > 32 µg/mL; MIC (Staphylococcus aureus [6]): 0.25 µg/mL; MIC (Staphylococcus aureus [8]): > 32 µg/mL; MIC (Staphylococcus aureus [14]): > 32 µg/mL; MIC (Staphylococcus aureus [18]): > 32 µg/mL; MIC (Staphylococcus aureus [20]): 0.25 µg/mL
O=C(N[C@H](CO)[C@H](O)c1ccc([N+](=O)[O-])cc1)C(Cl)Cl [CHLORAMPHENICOL] | 4 µg/mL | 1 µg/mL | 2 µg/mL | 4 µg/mL | 1 µg/mL | 2 µg/mL | 2 µg/mL | 2 µg/mL | 2 µg/mL | 4 µg/mL | 4 µg/mL | 2 µg/mL | 2 µg/mL | 2 µg/mL | 2 µg/mL | 2 µg/mL (≈ 6.19 µM) | 4 µg/mL | 4 µg/mL (≈ 12.4 µM) | 4 µg/mL | 2 µg/mL | MIC (Staphylococcus aureus [22]): 1 µg/mL; MIC (Staphylococcus aureus [6]): 4 µg/mL; MIC (Staphylococcus aureus [23]): 4 µg/mL (≈ 12.4 µM); MIC (Staphylococcus aureus [20]): 4 µg/mL
CCC[C@@H]1C[C@@H](C(=O)N[C@@H]([C@H]2O[C@H](SC)[C@H](O)[C@@H](O)[C@H]2O)[C@H](C)Cl)N(C)C1 [CLINDAMYCIN] | 0.125 µg/mL | 0.125 µg/mL | 0.125 µg/mL | 0.125 µg/mL | 0.063 µg/mL | 0.125 µg/mL | 0.063 µg/mL | 0.063 µg/mL | 0.125 µg/mL | 0.125 µg/mL | 0.125 µg/mL | 0.125 µg/mL | 0.125 µg/mL | 0.125 µg/mL | 0.125 µg/mL | 0.25 µg/mL (≈ 0.588 µM) | 0.125 µg/mL | 0.125 µg/mL (≈ 0.294 µM) | 0.125 µg/mL | 0.063 µg/mL | MIC (Staphylococcus aureus [8]): > 8 µg/mL; MIC (Staphylococcus aureus [29]): > 8 µg/mL; MIC (Staphylococcus aureus [30]): > 4 µg/mL; MIC (Staphylococcus aureus [31]): > 8 µg/mL
CCCCCCOP(=O)(CCN(CCCNC(=N)N)CCCNC(=N)N)OCCCCCCCCOP(=O)(CCN(CCCNC(=N)N)CCCNC(=N)N)OCCCCCC.Cl.Cl.Cl.Cl.Cl.Cl (stereo not given) | 0.25 µg/mL | 0.5 µg/mL | 0.5 µg/mL | 0.5 µg/mL | 0.5 µg/mL | 0.5 µg/mL | 0.5 µg/mL | 0.5 µg/mL | 0.5 µg/mL | 0.5 µg/mL | 0.5 µg/mL | 0.5 µg/mL | 0.5 µg/mL | 0.5 µg/mL | 0.5 µg/mL | 0.5 µg/mL | 0.5 µg/mL | 0.5 µg/mL | 0.25 µg/mL | 0.5 µg/mL | MIC (Pseudomonas aeruginosa [32]): 8 µg/mL; MIC (Staphylococcus aureus [22]): 0.5 µg/mL; CHI [33]: 31.5; MIC (Staphylococcus aureus [34]): 0.5 µg/mL; MIC [35]: 0.5 µg/mL; MIC (Pseudomonas aeruginosa [36]): 8 µg/mL; MIC (Staphylococcus aureus [6]): 0.5 µg/mL; MIC (Staphylococcus aureus [37]): 5 µg/mL; MIC (Staphylococcus aureus [23]): 0.5 µg/mL; MIC (Escherichia coli [38]): 5 µg/mL; MIC (Enterococcus faecium): 16 µg/mL; MIC (Escherichia coli [39]): 16 µg/mL; MIC (Enterococcus faecalis): 8 µg/mL; MIC (Staphylococcus aureus [40]): 5 µg/mL; HC50 at 3 h [41]: 139 µg/mL; MIC (Escherichia coli [42]): 2 µg/mL; MIC (Staphylococcus aureus [20]): 0.5 µg/mL
Cc1onc(-c2ccccc2)c1C(=O)N[C@@H]1C(=O)N2[C@@H]1SC(C)(C)[C@@H]2C(=O)O [OXACILLIN] | 0.25 µg/mL | 0.25 µg/mL | 0.25 µg/mL | 0.25 µg/mL | 0.25 µg/mL | 0.25 µg/mL | 0.25 µg/mL | 0.125 µg/mL | 0.25 µg/mL | 0.25 µg/mL | 0.25 µg/mL | 0.25 µg/mL | 0.25 µg/mL | 0.25 µg/mL | 0.25 µg/mL | 0.25 µg/mL (≈ 0.623 µM) | 0.25 µg/mL | 0.25 µg/mL (≈ 0.623 µM) | 0.25 µg/mL | 0.25 µg/mL | MIC (Staphylococcus aureus [22]): 0.25 µg/mL; MIC (Staphylococcus aureus [29]): > 16 µg/mL; MIC (Staphylococcus aureus [30]): > 8 µg/mL; MIC (Staphylococcus aureus [31]): > 16 µg/mL

From ChEMBL document CHEMBL5120927, “LEGO-Lipophosphonoxins: A Novel Approach in Designing Membrane Targeting Antimicrobials” (J Med Chem, 2022)
